Reference: the supplement of paper PMC10307832

Legend:
Experiment in all cases: relative viability (nuclei count vs DMSO), 5 days (fraction); higher = more cells survive
[1] = compound: CC1=C(C(=NN1)C)CC2=C(C3=C(S2)N(C(=O)N(C3=O)C)CC(C)C)C(=O)N4C[C@@H](CO4)O + COc1cccc2cc(-c3nc([C@H]4CC[C@H](C(=O)O)CC4)n4ncnc(N)c34)[nH]c12 [OSI-027] (partner 0.5 µM)
Outline: (§1)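 Medians of duplicate plates are given as relative viability. That measure is the nuclei count in treated wells divided by the count in vehicle wells. Counts were taken on 4× images of lung cancer cell lines in 1536-well plates, 5 days after pin-tool dosing the day after seeding with one drug alone or a fixed anchor-drug dose plus five library-drug doses (not always all listed) in √10 steps.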

[2] = compound: CC1=C(C(=NN1)C)CC2=C(C3=C(S2)N(C(=O)N(C3=O)C)CC(C)C)C(=O)N4C[C@@H](CO4)O + C[C@]1(O)C[C@@H](c2nc(-c3ccc4ccc(-c5ccccc5)nc4c3)c3c(N)nccn32)C1 [Linsitinib] (partner 1 µM)
Outline: as §1

[3] = compound: CC1=C(C(=NN1)C)CC2=C(C3=C(S2)N(C(=O)N(C3=O)C)CC(C)C)C(=O)N4C[C@@H](CO4)O + N=C(N)NC(=N)NCCc1ccccc1 [Phenformin] (partner 250 µM)
Outline: as §1

IDH-C35 + Luminespib = compound: Cc1ccccc1C(C(=O)NC1CCCCC1)N(C(=O)Cn1ccnc1C)c1cccc(F)c1 [IDH-C35] + CCNC(=O)c1noc(-c2cc(C(C)C)c(O)cc2O)c1-c1ccc(CN2CCOCC2)cc1 [Luminespib] (partner 0.01 µM)
Outline: as §1

Cell Line	relative viability ([1]; first compound 0.0025 µM)	relative viability ([1]; first compound 0.007906 µM)	relative viability ([1]; first compound 0.025 µM)	relative viability ([1]; first compound 0.07906 µM)	relative viability ([1]; first compound 0.25 µM)	relative viability ([2]; first compound 0.0025 µM)	relative viability ([2]; first compound 0.007906 µM)	relative viability ([2]; first compound 0.025 µM)	relative viability ([2]; first compound 0.07906 µM)	relative viability ([2]; first compound 0.25 µM)	relative viability ([3]; first compound 0.0025 µM)	relative viability ([3]; first compound 0.007906 µM)	relative viability ([3]; first compound 0.025 µM)	relative viability ([3]; first compound 0.07906 µM)	relative viability ([3]; first compound 0.25 µM)	relative viability (IDH-C35 + Luminespib; first compound 0.08 µM)	relative viability (IDH-C35 + Luminespib; first compound 0.253 µM)	relative viability (IDH-C35 + Luminespib; first compound 0.8 µM)	relative viability (IDH-C35 + Luminespib; first compound 8 µM)	relative viability (IDH-C35 + Luminespib; first compound 2.53 µM)
NCI-H650	0.637	0.509	0.501	0.451	0.647	1.03	0.973	0.63	0.858	0.791	0.499	0.431	0.4	0.458	0.472	0.783	0.766	0.79	0.799	
NCI-H661	0.783	0.636	0.663	0.677	0.862	0.593	0.636	0.603	0.762	0.463	0.286	0.304	0.27	0.22	0.277	0.905	0.907	0.963	0.914	0.882
NCI-H1793	0.298	0.289	0.262	0.242	0.231	0.726	0.868	0.834	0.66	0.926	0.211	0.213	0.138	0.138	0.135	0.159	0.215	0.255	0.184	
NCI-H1734	0.682	0.592	0.65	0.617	0.624	0.925	1.05	0.861	0.947	0.881	0.349	0.218	0.168	0.164	0.156	0.193	0.215	0.214	0.191	0.19
LXF-289	0.902	0.785	0.734	0.819	0.749	1.02	0.919	0.957	0.953	1.04	0.525	0.52	0.532	0.537	0.556	0.512	0.631	0.654	0.676	0.697
H3255	0.609	0.565	0.62	0.604	0.602	1.06	0.881	0.909	1.01	1.11	0.338	0.368	0.364	0.389	0.39	0.845	0.998	0.734	0.882	1.03
201T	0.843	0.79	0.72	0.642	0.71	1.06	0.988	1.03	1.1	1.06	0.468	0.383	0.426	0.472	0.426	1.05	1.07	1.02	1.01	1.04
NCI-H2126	0.78	0.669	0.787	0.661	0.684	0.712	0.789	0.673	0.72	0.67	0.583	0.526	0.523	0.529	0.585	0.841	0.858	0.892	0.883	0.897
HOP-62	0.896	0.849	0.756	0.763	0.909	1.01	0.967	0.889	1	0.817	0.649	0.564	0.656	0.624	0.861	0.944	0.849	0.822	0.927	0.923
CAL-12T	0.746	0.928	0.538	0.661	0.806	0.899	0.853	0.845	0.807	1.11	0.551	0.627	0.544	0.629	0.575	0.498	0.314	0.36	0.363	0.188
NCI-H520	0.276	0.281	0.27	0.277	0.193	0.87	0.902	0.528	0.409	0.552	0.501	0.167	0.192	0.179	0.198	0.26	0.189	0.27	0.269	0.21
NCI-H1755	0.767	0.743	0.684	0.702	0.704	1.05	1.03	0.975	0.957	0.976	0.637	0.607	0.589	0.583	0.622	0.535	0.365	0.454	0.715	0.412
NCI-H2023	0.465	0.423	0.481	0.473	0.393	0.648	0.786	0.696	0.777	0.683	0.382	0.437	0.361	0.431	0.412	0.617	0.769	0.854	0.506	0.722
NCI-H2009	0.742	0.701	0.616	0.706	0.695	1.24	1.22	1.19	1.27	1.26	0.487	0.484	0.455	0.557	0.503	1.08	1.01	0.999	1.01	0.921
